Measured values as given in patent US12390423B2 (priority 2019, dated 2025).

Assays:
[1] = test system: INS-1 (832/13) cells; assay: Glucose stimulated insulin secretion (GSIS) in INS-1 (832/13) cells; type: cell-based, rat; settings: 0.5 mM palmitate 24 h, AvoB 25 μM, ETO 100 μM
Procedure: To measure glucose stimulated insulin secretion (GSIS) in INS-1(832/13) cells a standard protocol was adopted. […] After treatments were complete, cell media was replaced with KRB (Krebs-Ringer Bicarbonate) buffer. Cells were then challenged with 3 mM glucose for 2 h in KRB buffer after which 500 μL KRB buffer was collected and frozen in −80° C. until analysis. For another 2 h, cells were challenged with 16 mM glucose after which 500 μL KRB was collected and frozen in −80° C. until analysis. The amount of insulin released into the KRB buffer was determined by an ELISA kit (Millipore, Rat/Mouse Insulin Detection kit). Data was normalized for cellular protein content, as determined by the Micro-BCA Protein Assay kit. The glucose-dependent insulin secretory index (GSIS16/3), defined as the ratio between the insulin secretion at 16 mM (stimulatory, surrogate to postprandial glucose levels) and 3 mM (basal, surrogate to fasting glucose levels) glucose was also calculated.

[2] = test system: INS-1 (832/13) cells; assay: Cytosolic calcium determination (fluo-3AM) in INS-1 (832/13) cells; type: cell-based, rat; settings: 0.5 mM palmitate, non-stimulatory glucose, AvoB 25 μM, ETO 100 μM, TMB-8 10 μM
Procedure: INS-1 (832/13) cells were treated as described for the FAO assays but also with metabolic modulators dichloroacetate (DCA) (1 mM) and trimetazidine (25 μM) as well as 10 μM endoplasmic reticulum calcium blocker 8-(N,N-Diethylamino)-octyl-3,4,5-trimethoxybenzoate HCl (TMB-8) (Sigma Aldrich) or 25 nM cyclosporin (Sigma Aldrich) in the presence of 0.5 mM palmitate/1 mM L-carnitine. Cytosolic calcium was measured in INS-1 (832/13) cells using fluo-3AM (Invitrogen, F1241) charged fluorescent dye that accumulates in the cytosol and emits green fluorescence after binding calcium ions. A stock solution of 10 mM fluo-3AM was diluted to 5 μM in fluo-3AM loading buffer (10 mM 4-(2-hydroxyethyl)-1-piperazineethanesulfonic acid (HEPES), 137 mM NaCl, […], 1 mM Na2HPO4, 5 mM glucose, and 0.5 mM MgCl2 (pH 7.4)]. After treatment, cells were incubated in fluo-3AM loading buffer for 30 min at 37° C. with gentle agitation after which cells were washed twice with PBS, trypsinized and collected for flow cytometry analysis. Cytosolic calcium was quantified by taking the mean green fluorescence values of live gated cells and normalizing to vehicle control.

[3] = test system: insulin signaling (pAkt-Ser473), MAPK, AMPK; assay: Immunoblotting (pAkt, pERK1/2, pP38, pAMPKα, PGC-1α) and NAO mitochondrial mass in C2C12 myotubes; type: cell-based, mouse; settings: 0.5 mM palmitate 24 h, 100 nM insulin 30 min, AvoB 25 μM, DCA 1 mM, TRI 25 μM
Procedure: For all ROS studies, INS-1 (832/13) cells and C2C12 myotubes were treated with or without palmitate and FAO inhibitors for 24 h in low glucose cell culture media as described for the FAO assay. After treatment, cells were trypsinized and re-suspended in PBS containing 5 μM of the fluorescent dye MitoSOX® (Molecular Probes, Invitrogen) and allowed to incubate for 5-15 minutes in a humidified atmosphere containing 5% CO2 at 37° C. Cells were then washed in PBS, placed in a 96 well plate and fluorescence was measured by flow cytometry. ROS was quantified by normalizing the mean fluorescence values of live gated cells to vehicle control. Mitochondrial membrane potential (MMP) in INS-1 (832/13) and C2C12 myotubes was measured using the cationic fluorescent dye JC-1 (Molecular Probes). JC-1 accumulates in the mitochondrial matrix in an MMP dependent manner. JC-1 fluoresces green in the cytosol where it exists as a monomer, after entering the mitochondria JC-1 monomers form J aggregates and fluoresce red, thus the red/green fluorescence ratio is used to determine MMP. After all treatments, cells were washed, trypsinized and re-suspended in PBS containing 1 μM JC-1 and allowed to incubate for 5-10 minutes in a humidified atmosphere containing 5% CO2 at 37° C. Cells were then washed in PBS, placed in a 96 well plate and fluorescence was measured by flow cytometry. MMP was quantified by normalizing the mean fluorescence values of live gated cells to vehicle control. Mitochondrial mass was measured using 10-N-nonyl acridine orange (NAO; Enzo Life Sciences, ENZ-52306), which accumulates in the mitochondria in an MMP-independent manner where it binds to cardiolipin in the inner mitochondrial membrane. Cells were treated, washed and collected as described and incubated with 0.35 μM NAO and green fluorescence was measured using flow cytometry. In all analysis (ROS, MMP and mitochondrial mass), forward vs side scatter plots were gated to exclude debris (e.g., dead cells), as cell death is associated with increased ROS and altered membrane potentials. For all cell culture experiments, after drug treatments cells were washed with chilled phosphate-buffered saline (PBS), and lysed in chilled lysis buffer with 1× protease inhibitor cocktail (Sigma). RIPA lysis buffer (Sigma-Aldrich) was used for INS-1 (832/13) cells and muscle lysis buffer for C2C12 myotubes (20 mM HEPES, 10 mM NaCl, 1.5 mM MgCl2, 1 mM DTT, 20% glycerol, and 0.1% Triton-X100). Cells were scraped, mechanically homogenized using a syringe and centrifuged at 14,000×g for 20 min at 4° C. and the supernatants were collected. For preparation of all gastrocnemius muscle lysates, 10 mg frozen tissue (wet weight) was washed in chilled PBS, placed in a dounce homogenizer, lysed in muscle lysis buffer and centrifuged at 14,000×g for 20 min at 4° C. and the supernatant was collected. Protein content for cell and tissue lysates was measured using the BCA protein assay kit (ThermoFisher) according to manufacturer's protocol. Thirty μg protein lysates were prepared in loading buffer and immunoblotting was performed by heating lysates for 5 minutes at 95° C. and subjecting them to gel electrophoresis on 10% SDS-polyacrylamide gels at 150 V for 75 minutes. Using a semi-dry transfer apparatus (Bio-Rad) the gels were then transferred at 25V for 45 minutes to a PVDF membrane and blocked with 5% BSA (Sigma) in tris-buffered saline-tween (TBS-T) for 1 hour. […]

[4] = test system: C2C12 myotubes; assay: Cellular ATP content in C2C12 myotubes; type: cell-based, mouse; settings: 0.5 mM palmitate 24 h, AVO 25 μM, DCA 1 mM, TRI 25 μM
Procedure: Total cellular ATP content was determined using the ATP bioluminescent assay kit (Calbiochem, 119107). Briefly, cells were seeded in white walled 96-well plates (1.2×10^4 cells/well for INS-1 and 2×10^4 cells/well for C2C12) and treated for 24 h (C2C12 cells were differentiated for 5 days prior to treatments whereas INS-1 cells were treated 24 h after seeding). After treatment, culture media was removed, and cells were lysed with nucleotide releasing buffer with gentle shaking for 5 min. ATP monitoring enzyme was then added to cell lysates and plates and luminescence was read in a Biotek Synergy HT spectrophotometer (Biotek; Winooski, VT).

Structure (SMILES) | Glucose stimulated insulin secretion (GSIS) [1] | Cytosolic Ca2+ (Fluo-3AM) [2] | Insulin signaling (insulin stimulated phosphorylation of AKT Ser473) [3] | Total cellular ATP content [4]
CCOC(=O)[C@@]1(CCCCCCOc2ccc(Cl)cc2)CO1 [ETO, etomoxir, reference compound] | GSIS was higher | able to reduce cytosolic Ca^2+ | – | –
CCN(CC)CCCCCCCCOC(=O)c1cc(OC)c(OC)c(OC)c1.Cl [TMB-8, 8-(N,N-Diethylamino)-octyl-3,4,5-trimethoxybenzoate HCl] | – | able to reduce cytosolic Ca^2+ | – | –
COc1ccc(CN2CCNCC2)c(OC)c1OC [trimetazidine, reference compound] | – | – | did not exert such effects | did not exert such effects
